The source of these data is patent US12404261B2, “Compounds and compositions for treating conditions associated with cGAS” (Novartis AG, priority 2020, dated 2025).

The assay has as its target human truncated cGAS enzyme (147-522 human cGAS) (Homo sapiens (Human), UniProt Q8N884). In words: Quantification of cGAS protein inhibition (cGAMP formation measured by LC-MS/MS). The class given is biochemical. On the procedure: A reagent buffer was prepared in filtered and autoclaved water according to the following: • 50 mM Tris-buffer pH 7.5 (1 M Tris-buffer pH 7.5, Invitrogen, Cat. No. 15567-027); • 50 mM NaCl (5 M NaCl, Sodium Chloride Solution, Sigma, 59222C-); • 5 mM MgCl2 (1 M MgCl2, Sigma, M1028); • 0.1 mM ZnCl2 (Zinc Chloride [7646-85-7], powder, Cell Culture Tested, Sigma, Z-0152); and • 0.001% Tween 20 (TWEEN 20, Sigma Aldrich, P1379-).
A buffer for the cGAS enzyme was prepared in filtered and autoclaved water according to the following: • 50 mM Tris-buffer pH 7.5; • 5 mM MgCl2; and • 0.001% Tween 20.
Compounds were dispensed to a […]. The human truncated cGAS enzyme (4.2 mg/mL 147-522 human cGAS, MW 43,909 g/mol) was stored in 50 mM Tris, 500 mM NaCl, 5% (v/v) glycerol at pH 8 and diluted in the cGAS buffer enzyme shortly before use. The enzyme solution was transferred into the reagent buffer to give a final concentration of 30 nM. The reaction was started by mixing the enzyme with ISD (a 45 bp double stranded DNA, MW 27,670 g/mol, 5 mM), GTP and ATP to a final concentration of 5 μM, 0.5 mM and 0.5 mM respectively in a final volume of 10 μl. The reaction plates were then centrifuged at 1000 rpm for 1 minute and incubated at room temperature for 1 h. After 1 h of incubation, [^5Ns]-2′3′-cGAMP to a final concentration of 200 nM and 30 μL of 100% acetonitrile/0.175% of TFA were added to the reaction mixture. The plates were centrifuged at 1000 rpm for 1 minute before being sealed for 3 seconds at 170° C. using a ThermoScientific sealer (ALPS™ 50V) and an aluminum sealing cover (Pierce Seal, 4titude, Product Code: 4TI-0531).
The concentration of cGAMP was measured on a LC-MS/MS system consisting of a THERMO Dionex Ultimate LC system with a high pressure pump, an autosampler, a column heating compartment (Reinach, Switzerland) and a SCIEX Triple Quad 5500 (Framingham, MA, USA) mass spectrometer for detection. The sample plates were centrifuged for 10 minutes at 2000 rpm. Up to three plates were placed in the autosampler for injection. An aliquot of 10 μL of each sample was injected on an XBridge BEH Amide 3.5 μm, 2.1×50 mm column (P/N 186004859) with an XBridge BEH Amide 5 μm 2.1×5 mm VanGuard Cartridge (P/N 186007760) pre-column (both WATERS, MA, USA) held at 40° C. An isocratic flow of 1.0 mL/min solvent (60% ACN, 8 mM ammonium acetate, 5 mM ammonium hydroxide, 0.04% acetic acid) was applied and sprayed into the ion source of the mass spectrometers. The MS parameters were optimized based on the properties of the compounds to be detected and run in positive multi-reaction mode (MRM) based on the mass transitions. LC and MS parameters were also optimized to allow for a sample-to-sample measuring time of approximately 75 sec and a run time of 8 hours per 384-well plate. All data were analyzed with Excel; and the dose response curves were generated using the auto fitting function of XLfit. The IC50 was determined by plotting the cGAMP concentration ratio (cGAMP divided by the internal standard [^15Ns]-2′3′-cGAMP) versus the concentration of compound.

[1] abbreviates: reported for the potential mixture of co-existing tautomers and/or racemates.
Where [2] appears, read: reported for the potential mixture in solution of co-existing tautomers and/or racemates.

The structures appear in SMILES notation.

One may read the IC50 as the midpoint of a concentration-inhibition curve.

Sequence of human truncated cGAS enzyme (147-522 human cGAS) (Q8N884 147-522): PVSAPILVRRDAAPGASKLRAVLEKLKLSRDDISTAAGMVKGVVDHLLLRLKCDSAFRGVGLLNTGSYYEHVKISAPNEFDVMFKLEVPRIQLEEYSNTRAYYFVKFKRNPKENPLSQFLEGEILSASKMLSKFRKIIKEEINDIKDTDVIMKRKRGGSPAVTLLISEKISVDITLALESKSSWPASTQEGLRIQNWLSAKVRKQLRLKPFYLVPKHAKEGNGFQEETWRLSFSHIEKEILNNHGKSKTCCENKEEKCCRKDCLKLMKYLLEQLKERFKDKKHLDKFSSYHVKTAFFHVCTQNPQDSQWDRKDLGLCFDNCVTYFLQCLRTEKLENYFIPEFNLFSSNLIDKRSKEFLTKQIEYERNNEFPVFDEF

Regarding `COc1cc2c(-c3cn[nH]c3)c(-c3nnc(C(C)(F)F)[nH]3)[nH]c2c(F)c1Cl` [Example 67, 6-chloro-2-(5-(1,1-difluoroethyl)-4H-1,2,4-triazol-3-yl)-7-fluoro-5-methoxy-3-(1H-pyrazol-4-yl)-1H-indole], the half-inhibitory concentration (IC50) under setting [1] came out at 30 nM.

As to `COc1cc2c(-c3cn[nH]c3)c(-c3nnc(N(C)C(C)=O)[nH]3)n(C)c2c(F)c1Cl` [Example 61, N-(5-(6-chloro-7-fluoro-5-methoxy-1-methyl-3-(1H-pyrazol-4-yl)-1H-indol-2-yl)-4H-1,2,4-triazol-3-yl)-N-methylacetamide], the IC50 under setting [1] was 41 nM.

`COc1cc2c(-n3ccnc3)c(-c3nnc(CCO)[nH]3)n(C)c2c(F)c1Cl` [Example 51, 2-(5-(6-chloro-7-fluoro-3-(1H-imidazol-1-yl)-5-methoxy-1-methyl-1H-indol-2-yl)-4H-1,2,4-triazol-3-yl)ethan-1-ol]: under setting [1], the IC50 is 169 nM.

Regarding `COc1cc2c(-n3ccnc3)c(-c3nnc(C(=O)N(C)CCO)[nH]3)n(C)c2c(F)c1Cl` [Example 41, 5-(6-chloro-7-fluoro-3-(1H-imidazol-1-yl)-5-methoxy-1-methyl-1H-indol-2-yl)-N-(2-hydroxyethyl)-N-methyl-4H-1,2,4-triazole-3-carboxamide], the IC50 under setting [1] stood at 61 nM.

Turning to `COc1cc2c(-n3ccnc3)c(-c3nnc(CCO)[nH]3)n(C)c2cc1Cl` [Example 119, 2-(5-(6-chloro-3-(1H-imidazol-1-yl)-5-methoxy-1-methyl-1H-indol-2-yl)-4H-1,2,4-triazol-3-yl)ethan-1-ol], the IC50 under setting [2] was 990 nM.

Consider `Cn1c(-c2nnc(C(F)(F)F)[nH]2)c(-n2ccnc2)c2ccc(Cl)c(C#N)c21` [Example 111, 6-chloro-3-(1H-imidazol-1-yl)-1-methyl-2-(5-(trifluoromethyl)-4H-1,2,4-triazol-3-yl)-1H-indole-7-carbonitrile], for which the IC50 under setting [2] came to 201 nM.

On to `FC(F)(F)c1nnc(-c2[nH]c3cc(Cl)c(Cl)cc3c2-c2cn[nH]c2)[nH]1` [Example 18, 5,6-dichloro-3-(1H-pyrazol-4-yl)-2-(5-(trifluoromethyl)-4H-1,2,4-triazol-3-yl)-1H-indole], for which the IC50 under setting [1] is 165 nM.

In the case of `COc1cc2c(-n3ccnc3)c(-c3nnc(F)[nH]3)[nH]c2c(F)c1Cl` [Example 87, 6-chloro-7-fluoro-2-(5-fluoro-4H-1,2,4-triazol-3-yl)-3-(1H-imidazol-1-yl)-5-methoxy-1H-indole], the IC50 under setting [1] came to 43 nM.

On to `COc1cc2c(-c3cn[nH]c3)c(-c3nnc(N4CCOCC4)[nH]3)n(C)c2c(F)c1Cl` [Example 59, 4-(5-(6-chloro-7-fluoro-5-methoxy-1-methyl-3-(1H-pyrazol-4-yl)-1H-indol-2-yl)-4H-1,2,4-triazol-3-yl)morpholine], for which, under setting [1], the IC50 came to 78 nM.

In the case of `COc1cc2c(-n3ccnc3)c(-c3nnc(C(=O)N4CCCC(O)C4)[nH]3)n(C)c2c(F)c1Cl` (stereo not shown) [Example 45, (5-(6-chloro-7-fluoro-3-(1H-imidazol-1-yl)-5-methoxy-1-methyl-1H-indol-2-yl)-4H-1,2,4-triazol-3-yl)(3-hydroxypiperidin-1-yl)methanone], under setting [1], the IC50 worked out at 56 nM.

As to `COCCc1nnc(-c2c(-n3ccnc3)c3cc(OC)c(Cl)c(F)c3n2C)[nH]1` [Example 52, 6-chloro-7-fluoro-3-(1H-imidazol-1-yl)-5-methoxy-2-(5-(2-methoxyethyl)-4H-1,2,4-triazol-3-yl)-1-methyl-1H-indole], the IC50 under setting [1] is 206 nM.

As for `COc1cc2c(-n3ccnc3)c(-c3nnc(C(F)(F)F)[nH]3)n(C)c2c(F)c1Cl` [Example 47, 6-chloro-7-fluoro-3-(1H-imidazol-1-yl)-5-methoxy-1-methyl-2-(5-(trifluoromethyl)-4H-1,2,4-triazol-3-yl)-1H-indole], the IC50 under setting [1] came out at 121 nM.

Consider `Cn1c(-c2nnc(CCO)[nH]2)c(-n2ccnc2)c2cc(O)c(Cl)c(C#N)c21` [Example 117, 6-chloro-5-hydroxy-2-(5-(2-hydroxyethyl)-4H-1,2,4-triazol-3-yl)-3-(1H-imidazol-1-yl)-1-methyl-1H-indole-7-carbonitrile], for which, under setting [2], the IC50 turned out to be 169 nM.

For `Oc1cc(-c2c(-c3nnc(C(F)(F)F)[nH]3)[nH]c3c(Cl)c(Cl)ccc23)no1` [Example 77, 3-(6,7-dichloro-2-(5-(trifluoromethyl)-4H-1,2,4-triazol-3-yl)-1H-indol-3-yl)isoxazol-5-ol], the IC50 under setting [1] came out at 1850 nM.

As to `COCC(O)c1nnc(-c2c(-c3cn[nH]c3)c3cc(OC)c(Cl)c(F)c3n2C)[nH]1` (stereo not shown) [Example 64, 1-(5-(6-chloro-7-fluoro-5-methoxy-1-methyl-3-(1H-pyrazol-4-yl)-1H-indol-2-yl)-4H-1,2,4-triazol-3-yl)-2-methoxyethan-1-ol], under setting [1], the IC50 came out at 52 nM.

For the molecule `Cn1c(-c2nnc(C(F)(F)F)[nH]2)c(-c2cn[nH]c2)c2cc(Cl)c(Cl)cc21` [Example 23, 5,6-dichloro-1-methyl-3-(1H-pyrazol-4-yl)-2-(5-(trifluoromethyl)-4H-1,2,4-triazol-3-yl)-1H-indole], the IC50 under setting [1] is 112 nM.

Take `COc1cc2c(-n3ccnc3)c(-c3nnc(C(=O)N(C)C)[nH]3)n(C)c2c(F)c1Cl` [Example 39, 5-(6-chloro-7-fluoro-3-(1H-imidazol-1-yl)-5-methoxy-1-methyl-1H-indol-2-yl)-N,N-dimethyl-4H-1,2,4-triazole-3-carboxamide]: the IC50 under setting [1] was 48 nM.

As to `COc1cc2c(-n3ccnc3)c(-c3nnc(OCCO)[nH]3)n(C)c2c(F)c1Cl` [Example 94, 2-((5-(6-chloro-7-fluoro-3-(1H-imidazol-1-yl)-5-methoxy-1-methyl-1H-indol-2-yl)-4H-1,2,4-triazol-3-yl)oxy)ethan-1-ol], the IC50 under setting [1] is 72 nM.

Take `N#Cc1c(Cl)ccc2c(-n3ccnc3)c(-c3nnc(C(F)(F)F)[nH]3)[nH]c12` [Example 110, 6-chloro-3-(1H-imidazol-1-yl)-2-(5-(trifluoromethyl)-4H-1,2,4-triazol-3-yl)-1H-indole-7-carbonitrile]: the IC50 under setting [2] is 226 nM.

With `Oc1cc2c(-c3cn[nH]c3)c(-c3nnc(C(F)(F)F)[nH]3)[nH]c2cc1Cl` [Example 33, 6-Chloro-3-(1H-pyrazol-4-yl)-2-(5-(trifluoromethyl)-4H-1,2,4-triazol-3-yl)-1H-indol-5-ol], under setting [1], the IC50 was 38 nM.

On to `Cn1c(-c2nnc(C(F)(F)F)[nH]2)c(-c2cn[nH]c2)c2ccc(Cl)c(Cl)c21` [Example 12, 6,7-dichloro-1-methyl-3-(1H-pyrazol-4-yl)-2-(5-(trifluoromethyl)-4H-1,2,4-triazol-3-yl)-1H-indole], for which the IC50 under setting [1] came out at 48 nM.

In the case of `COc1cc2c(-c3cn[nH]c3)c(-c3nnc(F)[nH]3)[nH]c2c(F)c1Cl` [Example 3, 6-chloro-7-fluoro-2-(5-fluoro-4H-1,2,4-triazol-3-yl)-5-methoxy-3-(1H-pyrazol-4-yl)-1H-indole], under setting [1], the IC50 is 30 nM.

For `FC(F)(F)Cc1nnc(-c2[nH]c3c(Cl)c(Cl)ccc3c2-c2cn[nH]c2)[nH]1` [Example 13, 6,7-dichloro-3-(1H-pyrazol-4-yl)-2-(5-(2,2,2-trifluoroethyl)-4H-1,2,4-triazol-3-yl)-1H-indole], the IC50 under setting [1] was 178 nM.

`COCC(=O)c1nnc(-c2c(-n3ccnc3)c3cc(OC)c(Cl)c(F)c3n2C)[nH]1` [Example 88, 1-(5-(6-chloro-7-fluoro-3-(1H-imidazol-1-yl)-5-methoxy-1-methyl-1H-indol-2-yl)-4H-1,2,4-triazol-3-yl)-2-methoxyethan-1-one]: the IC50 under setting [1] was 75 nM.

On to `N#Cc1c(Cl)ccc2c(-c3cn[nH]c3)c(-c3nnc(C(F)(F)F)[nH]3)[nH]c12` [Example 19, 6-chloro-3-(1H-pyrazol-4-yl)-2-(5-(trifluoromethyl)-4H-1,2,4-triazol-3-yl)-1H-indole-7-carbonitrile], for which the IC50 under setting [1] was 150 nM.
